Measurements from PubChem BioAssay (NCI).
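Here, GI50 denotes the concentration required for 50% inhibition of growth. TGI denotes the concentration required for complete inhibition of growth.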

Tests used:
Assay in all cases: NCI tumour cell line growth inhibition, 384-well format
[1] = test system: SR leukemia
[2] = test system: TK-10 renal
[3] = test system: SN12C renal
[4] = test system: SK-MEL-5 melanoma
[5] = test system: SF-539 CNS
[6] = test system: T-47D breast
[7] = test system: UACC-62 melanoma
[8] = test system: SK-MEL-28 melanoma
[9] = test system: SF-268 CNS
[10] = test system: HOP-92 NSCLC
[11] = test system: MOLT-4 leukemia
[12] = test system: KM12 colon
[13] = test system: EKVX NSCLC
[14] = test system: HT29 colon
[15] = test system: HCC-2998 colon
[16] = test system: OVCAR-8 ovarian
[17] = test system: NCI-H460 NSCLC
[18] = test system: M14 melanoma
[19] = test system: SNB-75 CNS
[20] = test system: MDA-MB-435 melanoma
[21] = test system: MDA-MB-231 breast
[22] = test system: UACC-257 melanoma
[23] = test system: OVCAR-3 ovarian
[24] = test system: HCT-15 colon
[25] = test system: BT-549 breast
[26] = test system: U251 glioblastoma
[27] = test system: SK-OV-3 ovarian
[28] = test system: CCRF-CEM leukemia
[29] = test system: RPMI-8226 leukemia
[30] = test system: NCI-H23 lung
[31] = test system: HL-60(TB) leukemia
[32] = test system: IGROV1 ovarian
[33] = test system: A549 NSCLC
[34] = test system: RXF 393 renal
[35] = test system: SNB-19 CNS
[36] = test system: DU-145 prostate
[37] = test system: MALME-3M melanoma
[38] = test system: NCI-H226 lung
[39] = test system: PC-3 prostate
[40] = test system: HOP-62 NSCLC
[41] = test system: NCI-H322M lung
[42] = test system: HS 578T breast

`COc1ccc(F)c(F)c1C(=O)c1cnc(NC2CCN(S(C)(=O)=O)CC2)nc1N` gave a GI50 [1] of 15.7 nM, a TGI [1] of 39 nM and a GI50 [2] of 304 nM. It also gave a TGI [2] of over 100000 nM, a GI50 [3] of 139 nM and a TGI [3] of 681 nM. For the same molecule, the GI50 [4] was 82 nM, the TGI [4] was 609 nM and the GI50 [5] was 137 nM. The TGI [5] was 501 nM, the GI50 [6] was 306 nM and the TGI [6] was over 100000 nM. The GI50 [7] was 138 nM, the TGI [7] was 453 nM and the GI50 [8] was 161 nM. For the same molecule, the TGI [8] was 1580 nM, the GI50 [9] was 129 nM and the TGI [9] was 361 nM. For the same molecule, the GI50 [10] was 310 nM, the TGI [10] was over 100000 nM and the GI50 [11] was 91.2 nM. It also gave a TGI [11] of 396 nM, a GI50 [12] of 108 nM and a TGI [12] of 456 nM. It also gave a GI50 [13] of 424 nM, a TGI [13] of 3160 nM and a GI50 [14] of 206 nM. It also gave a TGI [14] of 2050 nM, a GI50 [15] of 289 nM and a TGI [15] of 1910 nM. The GI50 [16] was 144 nM, the TGI [16] was 917 nM and the GI50 [17] was 30.2 nM. It also gave a TGI [17] of 162 nM, a GI50 [18] of 346 nM and a TGI [18] of 1640 nM. The GI50 [19] was 86.4 nM, the TGI [19] was 1730 nM and the GI50 [20] was 251 nM. The TGI [20] was 1600 nM, the GI50 [21] was 201 nM and the TGI [21] was 3700 nM. It also gave a GI50 [22] of 1030 nM, a TGI [22] of 2620 nM and a GI50 [23] of 305 nM. For the same molecule, the TGI [23] was 1450 nM, the GI50 [24] was 187 nM and the TGI [24] was over 100000 nM. For the same molecule, the GI50 [25] was 44.1 nM, the TGI [25] was 434 nM and the GI50 [26] was 278 nM. It also gave a TGI [26] of over 100000 nM, a GI50 [27] of 1030 nM and a TGI [27] of over 100000 nM. It also gave a GI50 [28] of 72 nM, a TGI [28] of 234 nM and a GI50 [29] of 20.9 nM. It also gave a TGI [29] of 124 nM, a GI50 [30] of 140 nM and a TGI [30] of 774 nM. The GI50 [31] was 15.8 nM, the TGI [31] was 125 nM and the GI50 [32] was 222 nM. For the same molecule, the TGI [32] was over 100000 nM, the GI50 [33] was 169 nM and the TGI [33] was over 100000 nM. For the same molecule, the GI50 [34] was 159 nM, the TGI [34] was 345 nM and the GI50 [35] was 348 nM. For the same molecule, the TGI [35] was over 100000 nM, the GI50 [36] was 211 nM and the TGI [36] was 977 nM. For the same molecule, the GI50 [37] was 379 nM, the TGI [37] was 2000 nM and the GI50 [38] was 164 nM. The TGI [38] was 753 nM, the GI50 [39] was 284 nM and the TGI [39] was 2130 nM. For the same molecule, the GI50 [40] was 135 nM, the TGI [40] was 466 nM and the GI50 [41] was 215 nM. It also gave a TGI [41] of 602 nM, a GI50 [42] of 206 nM and a TGI [42] of 492 nM.
